Measured values: US20100279863A1, “HERBICIDAL COMPOUNDS BASED ON N-AZINYL-N'-PYRIDYLSULFONYLUREAS” (Bayer CropScience AG, priority 2009, published 2010)

Key:
Type in all cases: in vivo
[1] = tested on: Slender meadow foxtail (Alopecurus myosuroides); assay: Pre-emergence herbicidal activity, ALOMY; settings: 80 g/ha, scored visually after approximately 3 weeks, 100% = plants have died
Text: (§1) Seeds of monocotyledonous or dicotyledonous weed plants or crop plants are placed in sandy loam in wood fiber pots and covered with soil. The compounds according to the invention, which are formulated as wettable powders (WP) are then applied to the surface of the soil cover in the form of an aqueous suspension or emulsion with a water application rate of 600 I/ha (converted), with addition of 0.2% wetter. After the treatment, the pots are placed in the greenhouse and maintained under good growth conditions for the test plants. After approximately 3 weeks, the activity of the preparation is scored visually in comparison with untreated controls (herbicidal activity in percent (%): 100% activity=plants have died, 0% activity=like control plants). In the table, the individual crops are abbreviated as follows: • ALOMY: Slender meadow foxtail (Alopecurus myosuroides) • AMARE: Redroot pigweed (Amaranthus retroflexus) • CHEAL: Lambs quarters (Chenopodium album) • DIGSA: Hairy crab grass (Digitaria sanguinalis) • ECHCG: Barnyard grass (Echinochloa crus-galls) • LOLMU: Italian rye grass (Lolium multiflorum) • MATIN: Scentless camomile (Matricaria inodora) • PHBPU: Purple morning glory (Pharbitis/Ipomoea purpurea) • SETVI: Green bristlegrass (Setaria viridis) • SINAL: White mustard (Sinapis alba) • STEME: Chickweed (Stellaria media) • VIOTR: Wild pansy (Viola tricolor)

[2] = tested on: Redroot pigweed (Amaranthus retroflexus); assay: Pre-emergence herbicidal activity, AMARE; settings: 80 g/ha, scored visually after approximately 3 weeks, 100% = plants have died
Text: as §1

[3] = tested on: Lambs quarters (Chenopodium album); assay: Pre-emergence herbicidal activity, CHEAL; settings: 80 g/ha, scored visually after approximately 3 weeks, 100% = plants have died
Text: as §1

[4] = tested on: Hairy crab grass (Digitaria sanguinalis); assay: Pre-emergence herbicidal activity, DIGSA; settings: 80 g/ha, scored visually after approximately 3 weeks, 100% = plants have died
Text: as §1

[5] = tested on: Barnyard grass (Echinochloa crus-galls); assay: Pre-emergence herbicidal activity, ECHCG; settings: 80 g/ha, scored visually after approximately 3 weeks, 100% = plants have died
Text: as §1

[6] = tested on: Italian rye grass (Lolium multiflorum); assay: Pre-emergence herbicidal activity, LOLMU; settings: 80 g/ha, scored visually after approximately 3 weeks, 100% = plants have died
Text: as §1

[7] = tested on: Scentless camomile (Matricaria inodora); assay: Pre-emergence herbicidal activity, MATIN; settings: 80 g/ha, scored visually after approximately 3 weeks, 100% = plants have died
Text: as §1

[8] = tested on: Purple morning glory (Pharbitis/Ipomoea purpurea); assay: Pre-emergence herbicidal activity, PHBPU; settings: 80 g/ha, scored visually after approximately 3 weeks, 100% = plants have died
Text: as §1

[9] = tested on: Green bristlegrass (Setaria viridis); assay: Pre-emergence herbicidal activity, SETVI; settings: 80 g/ha, scored visually after approximately 3 weeks, 100% = plants have died
Text: as §1

[10] = tested on: Chickweed (Stellaria media); assay: Pre-emergence herbicidal activity, STEME; settings: 80 g/ha, scored visually after approximately 3 weeks, 100% = plants have died
Text: as §1

[11] = tested on: Wild pansy (Viola tricolor); assay: Pre-emergence herbicidal activity, VIOTR; settings: 80 g/ha, scored visually after approximately 3 weeks, 100% = plants have died
Text: as §1

[12] = tested on: Velvetleaf (Abutilon theophrasti); assay: Post-emergence herbicidal activity, ABUTH; settings: one-leaf stage, 80 g/ha, scored visually after approximately 3 weeks, 100% = plants have died
Experimental: (§2) Seeds of monocotyledonous or dicotyledonous weed plants or crop plants are placed in sandy loam in wood fiber pots, covered with soil and grown in the greenhouse under good growth conditions. 2 to 3 weeks after sowing, the test plants are treated in the one-leaf stage. The compounds according to the invention, which are formulated as wettable powders (WP), are then sprayed onto the green plant parts in the form of an aqueous suspension or emulsion with a water application rate of 600 l/ha (converted) with addition of 0.2% of wetter. After the test plants have been left to stand in the greenhouse for approximately 3 weeks under optimal growth conditions, the activity of the preparation is scored visually in comparison with untreated controls (herbicidal activity in percent (%): 100% activity=plants have died, 0% activity=like control plants). In the table, the individual crops are abbreviated as follows: • ABUTH: Velvetleaf (Abutilon theophrasti) • ALOMY: Slender meadow foxtail (Alopecurus myosuroides) • AMARE: Redroot pigweed (Amaranthus retroflexus) • CHEAL: Lambs quarters (Chenopodium album) • ECHCG: Barnyard grass (Echinochloa crus-galls) • LOLMU: Italian rye grass (Lolium multiflorum) • MATIN: Scentless camomile (Matricaria inodora) • PHBPU: Purple morning glory (Pharbitis/Ipomoea purpurea) • POLCO: Black bindweed (Polygonum convolvulus) • SETVI: Green bristlegrass (Setaria viridis) • STEME: Chickweed (Stellaria media) • VIOTR: Wild pansy (Viola tricolor) • XANST: Rough cocklebear (Xanthium strumarium)

[13] = tested on: Slender meadow foxtail (Alopecurus myosuroides); assay: Post-emergence herbicidal activity, ALOMY; settings: one-leaf stage, 80 g/ha, scored visually after approximately 3 weeks, 100% = plants have died
Experimental: as §2

[14] = tested on: Redroot pigweed (Amaranthus retroflexus); assay: Post-emergence herbicidal activity, AMARE; settings: one-leaf stage, 80 g/ha, scored visually after approximately 3 weeks, 100% = plants have died
Experimental: as §2

[15] = tested on: Lambs quarters (Chenopodium album); assay: Post-emergence herbicidal activity, CHEAL; settings: one-leaf stage, 80 g/ha, scored visually after approximately 3 weeks, 100% = plants have died
Experimental: as §2

[16] = tested on: Barnyard grass (Echinochloa crus-galls); assay: Post-emergence herbicidal activity, ECHCG; settings: one-leaf stage, 80 g/ha, scored visually after approximately 3 weeks, 100% = plants have died
Experimental: as §2

[17] = tested on: Italian rye grass (Lolium multiflorum); assay: Post-emergence herbicidal activity, LOLMU; settings: one-leaf stage, 80 g/ha, scored visually after approximately 3 weeks, 100% = plants have died
Experimental: as §2

[18] = tested on: Scentless camomile (Matricaria inodora); assay: Post-emergence herbicidal activity, MATIN; settings: one-leaf stage, 80 g/ha, scored visually after approximately 3 weeks, 100% = plants have died
Experimental: as §2

[19] = tested on: Purple morning glory (Pharbitis/Ipomoea purpurea); assay: Post-emergence herbicidal activity, PHBPU; settings: one-leaf stage, 80 g/ha, scored visually after approximately 3 weeks, 100% = plants have died
Experimental: as §2

[20] = tested on: Black bindweed (Polygonum convolvulus); assay: Post-emergence herbicidal activity, POLCO; settings: one-leaf stage, 80 g/ha, scored visually after approximately 3 weeks, 100% = plants have died
Experimental: as §2

[21] = tested on: Green bristlegrass (Setaria viridis); assay: Post-emergence herbicidal activity, SETVI; settings: one-leaf stage, 80 g/ha, scored visually after approximately 3 weeks, 100% = plants have died
Experimental: as §2

[22] = tested on: Chickweed (Stellaria media); assay: Post-emergence herbicidal activity, STEME; settings: one-leaf stage, 80 g/ha, scored visually after approximately 3 weeks, 100% = plants have died
Experimental: as §2

[23] = tested on: Wild pansy (Viola tricolor); assay: Post-emergence herbicidal activity, VIOTR; settings: one-leaf stage, 80 g/ha, scored visually after approximately 3 weeks, 100% = plants have died
Experimental: as §2

[24] = tested on: Rough cocklebear (Xanthium strumarium); assay: Post-emergence herbicidal activity, XANST; settings: one-leaf stage, 80 g/ha, scored visually after approximately 3 weeks, 100% = plants have died
Experimental: as §2

[25] = tested on: White mustard (Sinapis alba); assay: Pre-emergence herbicidal activity, SINAL; settings: 80 g/ha, scored visually after approximately 3 weeks, 100% = plants have died
Text: as §1

SMILES | herbicidal activity in percent, ALOMY [1] | herbicidal activity in percent, AMARE [2] | herbicidal activity in percent, ECHCG [5] | herbicidal activity in percent, LOLMU [6] | herbicidal activity in percent, SETVI [9] | herbicidal activity in percent, STEME [10] | herbicidal activity in percent, VIOTR [11] | herbicidal activity in percent, ABUTH [12] | herbicidal activity in percent, ALOMY [13] | herbicidal activity in percent, AMARE [14] | herbicidal activity in percent, CHEAL [15] | herbicidal activity in percent, ECHCG [16] | herbicidal activity in percent, LOLMU [17] | herbicidal activity in percent, MATIN [18] | herbicidal activity in percent, PHBPU [19] | herbicidal activity in percent, POLCO [20] | herbicidal activity in percent, SETVI [21] | herbicidal activity in percent, STEME [22] | herbicidal activity in percent, VIOTR [23] | herbicidal activity in percent, XANST [24] | also measured
COc1cc(C)nc(NC(=O)NS(=O)(=O)c2cnccc2C2=NOCCO2)n1 [Ia-9] | 90% | 90% | 80% | 90% | 90% | 90% | 90% | 90% | 90% | 100% | 90% | 90% | 90% | 100% | 100% | 90% | 80% | 90% | 90% | 100% | herbicidal activity in percent, CHEAL [3]: 90%; herbicidal activity in percent, DIGSA [4]: 90%; herbicidal activity in percent, MATIN [7]: 90%; herbicidal activity in percent, PHBPU [8]: 90%
Cc1cc(C)nc(NC(=O)NS(=O)(=O)c2cnccc2C2=NOCCO2)n1 [Ia-3] | 90% | 85% | 80% | 85% | 90% | 80% | 80% | 90% | 90% | 95% | 80% | 95% | 85% | 100% | 100% | 80% | 80% | 85% | 80% | 90% | herbicidal activity in percent, CHEAL [3]: 90%; herbicidal activity in percent, MATIN [7]: 90%; herbicidal activity in percent, PHBPU [8]: 90%; herbicidal activity in percent, SINAL [25]: 90%
COc1cc(OC)nc(NC(=O)NS(=O)(=O)c2cccnc2C2=NOCCO2)n1 [Ic-1] | 90% | 90% | 90% | 85% | 85% | 90% | 80% | 80% | 80% | 95% | 80% | 90% | 85% | 90% | 90% | 90% | 85% | 90% | 90% | 90% | herbicidal activity in percent, DIGSA [4]: 80%; herbicidal activity in percent, SINAL [25]: 90%
CN(C)c1nc(NC(=O)NS(=O)(=O)c2cnccc2C2=NOCCO2)nc(OCC(F)(F)F)n1 [Ia-8] |  |  |  |  |  |  |  |  |  | 80% |  | 80% | 80% |  |  |  |  | 80% |  |  | 
COc1cc(OC)nc(NC(=O)NS(=O)(=O)c2cnccc2C2=NOCCO2)n1 [Ia-2, 4-(5,6-Dihydro-1,4,2-dioxazin-3-yl)-N-[(4,6-dimethoxypyrimidin-2-yl)carbamoyl]pyridine-3-sulfonamide] | 90% | 90% | 90% | 90% | 100% | 90% | 90% | 90% | 90% | 100% | 80% | 90% | 95% | 90% | 90% | 90% | 95% | 95% | 90% | 100% | herbicidal activity in percent, CHEAL [3]: 100%; herbicidal activity in percent, DIGSA [4]: 80%; herbicidal activity in percent, MATIN [7]: 90%; herbicidal activity in percent, PHBPU [8]: 80%; herbicidal activity in percent, SINAL [25]: 100%
